Measured values: ChEMBL document CHEMBL3804815, “Aloperine and Its Derivatives as a New Class of HIV-1 Entry Inhibitors” (ACS Med Chem Lett, 2016)
The source made the active and inactive calls. The rule behind the calls is not given here.

Assays:
[1] = test system: Human immunodeficiency virus 1; experiment: Antiviral activity against HIV1 NL4-3 infected in human MT4 cells assessed as reduction in viral replication measured on day 3 post infection by Nano-Glo luciferase reporter gene assay; format: functional, organism-based; details: Human immunodeficiency virus 1, NL4-3, MT4, 72 h
[2] = Cytotoxicity against human MT4 cells assessed as reduction in cell viability after 3 days by CellTiter-Glo luminescent assay; format: cell-based
COS [3] = experiment: Inhibition of HIV1 NL4-3 Env-induced cell-cell fusion between viral envelope expressing African green monkey COS cells to CXCR4 receptor expressing human TZM-bl cells at 0.01 to 10 uM after overnight incubation by Bright-Glo luciferase assay; format: cell-based; details: Human immunodeficiency virus 1
COS [4] = experiment: Inhibition of HIV1 YU2 gp120-induced cell-cell fusion between viral envelope expressing African green monkey COS cells to CCR5 receptor expressing human TZM-bl cells at 0.01 to 10 uM after overnight incubation by Bright-Glo luciferase assay; format: cell-based; details: Human immunodeficiency virus type 1 (isolate YU2)
[5] = test system: Human immunodeficiency virus 1; experiment: Antiviral activity against HIV1 NL4-3 assessed as inhibition of viral infection in human MT4 cells treated 2 hrs post infection; format: functional, organism-based
[6] = Inhibition of HIV1 NL4-3 Env-induced cell-cell fusion between viral envelope expressing African green monkey COS cells to CXCR4 receptor expressing human TZM-bl cells after overnight incubation by Bright-Glo luciferase assay; format: cell-based; details: Human immunodeficiency virus 1, NL4-3, COS
[7] = test system: Human immunodeficiency virus 1; experiment: Antiviral activity against HIV1 NL4-3 assessed as inhibition of early phase viral infection in human MT4 cells; format: functional, organism-based
[8] = Inhibition of HIV1 YU2 gp120-induced cell-cell fusion between viral envelope expressing African green monkey COS cells to CCR5 receptor expressing human TZM-bl cells after overnight incubation by Bright-Glo luciferase assay; format: cell-based, Human immunodeficiency virus type 1 (isolate YU2); details: Human immunodeficiency virus 1, COS
COS [9] = experiment: Inhibition of HIV1 8X gp120-induced cell-cell fusion between viral envelope expressing African green monkey COS cells and human TZM-bl cells at 0.001 to 10 uM after overnight incubation by Bright-Glo luciferase assay; format: cell-based; details: Human immunodeficiency virus 1
COS [10] = experiment: Inhibition of BMS-806 resistant HIV1 YU2 gp120 T198P mutant-induced cell-cell fusion between viral envelope expressing African green monkey COS cells to CCR5 receptor expressing human TZM-bl cells at 0.001 to 10 uM after overnight incubation by Bright-Glo luciferase assay; format: cell-based; details: Human immunodeficiency virus type 1 (isolate YU2)
COS [11] = experiment: Inhibition of HIV1 8X gp120-induced cell-cell fusion between viral envelope expressing African green monkey COS cells and human TZM-bl cells up to 5 uM after overnight incubation by Bright-Glo luciferase assay; format: cell-based; details: Human immunodeficiency virus 1
COS [12] = experiment: Inhibition of BMS-806 resistant HIV1 YU2 gp120 T198P mutant-induced cell-cell fusion between viral envelope expressing African green monkey COS cells to CCR5 receptor expressing human TZM-bl cells at 5 uM after overnight incubation by Bright-Glo luciferase assay; format: cell-based; details: Human immunodeficiency virus type 1 (isolate YU2)
[13] = test system: Human immunodeficiency virus 1; experiment: Antiviral activity against pseudotype HIV1 CNE55 harboring HIV1 subtype CRF01_AE Env assessed as inhibition of viral infection in human TZM-bl cells measured 2 days post infection by luciferase reporter gene assay; format: functional, organism-based; details: Human immunodeficiency virus 1, CNE55, TZM-bl, 48 h
[14] = test system: Human immunodeficiency virus 1; experiment: Antiviral activity against pseudotype HIV1 CH119 harboring HIV1 subtype CRF07_BC Env assessed as inhibition of viral infection in human TZM-bl cells measured 2 days post infection by luciferase reporter gene assay; format: functional, organism-based; details: Human immunodeficiency virus 1, CH119, TZM-bl, 48 h
[15] = test system: Human immunodeficiency virus 1; experiment: Antiviral activity against pseudotype HIV1 BJOX2000 harboring HIV1 subtype CRF07_BC Env assessed as inhibition of viral infection in human TZM-bl cells measured 2 days post infection by luciferase reporter gene assay; format: functional, organism-based; details: Human immunodeficiency virus 1, BJOX2000, TZM-bl, 48 h
[16] = test system: Human immunodeficiency virus 1; experiment: Antiviral activity against pseudotype HIV1 25710 harboring HIV1 subtype C Env assessed as inhibition of viral infection in human TZM-bl cells measured 2 days post infection by luciferase reporter gene assay; format: functional, organism-based; details: Human immunodeficiency virus 1, 25710, TZM-bl, 48 h
[17] = test system: Human immunodeficiency virus 1; experiment: Antiviral activity against pseudotype HIV1 CE0217 harboring HIV1 subtype C Env assessed as inhibition of viral infection in human TZM-bl cells measured 2 days post infection by luciferase reporter gene assay; format: functional, organism-based; details: Human immunodeficiency virus 1, CE0217, TZM-bl, 48 h
[18] = Cytotoxicity against human TZM-bl cells at 20 uM; format: cell-based
[19] = test system: Human immunodeficiency virus 1; experiment: Antiviral activity against pseudotype HIV1 CE1176 harboring HIV1 subtype C Env assessed as inhibition of viral infection in human TZM-bl cells measured 2 days post infection by luciferase reporter gene assay; format: functional, organism-based; details: Human immunodeficiency virus 1, CE1176, TZM-bl, 48 h
[20] = test system: Human immunodeficiency virus 1; experiment: Antiviral activity against pseudotype HIV1 TRO11 harboring HIV1 subtype B Env assessed as inhibition of viral infection in human TZM-bl cells measured 2 days post infection by luciferase reporter gene assay; format: functional, organism-based; details: Human immunodeficiency virus 1, TRO11, TZM-bl, 48 h
[21] = test system: Human immunodeficiency virus 1; experiment: Effect on binding of HIV1 3B gp120 to CD4-IgG2 at 1 to 10 ug/ml by ELISA
[22] = test system: Human immunodeficiency virus 1; experiment: Antiviral activity against pseudotype HIV1 X1632 harboring HIV1 subtype G Env assessed as inhibition of viral infection in human TZM-bl cells measured 2 days post infection by luciferase reporter gene assay; format: functional, organism-based; details: Human immunodeficiency virus 1, X1632, TZM-bl, 48 h

SMILES	EC50 [1]	CC50 at 72 h [2]	other results
CN1CCCC2=C[C@H]3C[C@H](CN4CCCC[C@H]34)[C@@H]21	> 10 µM	> 81.3 µM	
NCCCCCN1CCCC2=C[C@H]3C[C@H](CN4CCCC[C@H]34)[C@@H]21	5.38 µM	> 63.1 µM	
C=C(C)[C@@H]1CC[C@]2(C(=O)NCCCCCCCNC(C)=O)CC[C@]3(C)[C@H](CC[C@@H]4[C@@]5(C)CC[C@H](O)C(C)(C)[C@@H]5CC[C@]43C)[C@@H]12	0.025 µM	> 32.8 µM	inhibition (COS [3]): Active; inhibition (COS [4]): Active
O=C(/C=C/c1ccc(OC(F)(F)F)cc1)NCCCCCN1CCCC2=C[C@H]3C[C@H](CN4CCCC[C@H]34)[C@@H]21	2.39 µM	6.36 µM	
O=C(Cc1ccc(OC(F)(F)F)cc1)NCCCCCN1CCCC2=C[C@H]3C[C@H](CN4CCCC[C@H]34)[C@@H]21	4.21 µM	17.5 µM	
C1=C2CCCN[C@H]2[C@@H]2C[C@H]1[C@H]1CCCCN1C2	1.75 µM	> 86.2 µM	inhibition [5]: inactive; EC50 [6]: 1.2 µM; inhibition [7]: Active; EC50 [8]: 1.6 µM; inhibition (COS [9]): Active; inhibition (COS [10]): Active
O=C(/C=C/c1ccc2c(c1)OCO2)NCCN1CCCC2=C[C@H]3C[C@H](CN4CCCC[C@H]34)[C@@H]21	> 10 µM	> 44.5 µM	
COc1ccc(C(=O)NCCCCN2CCCC3=C[C@H]4C[C@H](CN5CCCC[C@H]45)[C@@H]32)cc1	8.13 µM	> 45.8 µM	
O=C(NCCCCCN1CCCC2=C[C@H]3C[C@H](CN4CCCC[C@H]34)[C@@H]21)c1ccc(OC(F)(F)F)cc1F	6.21 µM	> 38.2 µM	
O=C(NCCN1CCCC2=C[C@H]3C[C@H](CN4CCCC[C@H]34)[C@@H]21)c1ccc(OC(F)(F)F)cc1	> 10 µM	> 43.2 µM	
O=C(NCCCCN1CCCC2=C[C@H]3C[C@H](CN4CCCC[C@H]34)[C@@H]21)c1ccc(C(F)(F)F)cc1	0.69 µM	> 42.1 µM	
O=C(NCCCCN1CCCC2=C[C@H]3C[C@H](CN4CCCC[C@H]34)[C@@H]21)c1ccccc1	> 10 µM	> 49.1 µM	
C1CN[C@@H]2C(C1)C[C@H]1C[C@@H]2CN2CCCC[C@H]12 (stereo partly specified)	> 10 µM	> 85.5 µM	
O=C(NCCCCN1CCCC2=C[C@H]3C[C@H](CN4CCCC[C@H]34)[C@@H]21)c1ccc(OC(F)(F)F)cc1	1.12 µM	34.6 µM	
O=C(NCCCCN1CCCC2=C[C@H]3C[C@H](CN4CCCC[C@H]34)[C@@H]21)c1ccc(OC(F)(F)F)cc1F	3.14 µM	> 39.3 µM	
NCCCCN1CCCC2=C[C@H]3C[C@H](CN4CCCC[C@H]34)[C@@H]21	8 µM	> 69.2 µM	
O=C(/C=C/c1ccc2c(c1)OCO2)NCCCCN1CCCC2=C[C@H]3C[C@H](CN4CCCC[C@H]34)[C@@H]21	3.17 µM	> 41.9 µM	
NCCN1CCCC2=C[C@H]3C[C@H](CN4CCCC[C@H]34)[C@@H]21	> 10 µM	> 73 µM	
O=C(Cc1ccc(OC(F)(F)F)cc1)NCCN1CCCC2=C[C@H]3C[C@H](CN4CCCC[C@H]34)[C@@H]21	> 10 µM	> 41.9 µM	

SMILES	EC50 [1]	CC50 at 72 h [2]	other results
O=C(NCCCCN1CCCC2=C[C@H]3C[C@H](CN4CCCC[C@H]34)[C@@H]21)c1ccc(F)cc1	> 10 µM	> 47.1 µM	
O=C(Cc1ccc(OC(F)(F)F)cc1)NCCCN1CCCC2=C[C@H]3C[C@H](CN4CCCC[C@H]34)[C@@H]21	7.68 µM	> 40.7 µM	
C1=C2CCCN(CCCCNCc3ccccc3)[C@H]2[C@@H]2C[C@H]1[C@H]1CCCCN1C2	0.96 µM	28.6 µM	
NCCCCCCN1CCCC2=C[C@H]3C[C@H](CN4CCCC[C@H]34)[C@@H]21	> 10 µM	> 60.4 µM	
O=C(NCCCCCCN1CCCC2=C[C@H]3C[C@H](CN4CCCC[C@H]34)[C@@H]21)c1ccc(OC(F)(F)F)cc1	5.44 µM	18.5 µM	
COc1ccnc2[nH]cc(C(=O)C(=O)N3CCN(C(=O)c4ccccc4)C[C@H]3C)c12			inhibition (COS [11]): inactive; inhibition (COS [12]): inactive; EC50 [8]: 0.1 µM
O=C(NCCCCN1CCCC2=C[C@H]3C[C@H](CN4CCCC[C@H]34)[C@@H]21)c1ccc(O)cc1	4.57 µM	> 47.3 µM	
O=C(/C=C/c1ccc(OC(F)(F)F)cc1)NCCCCN1CCCC2=C[C@H]3C[C@H](CN4CCCC[C@H]34)[C@@H]21	2.06 µM	9.02 µM	
CN1CCCC2C[C@H]3C[C@H](CN4CCCC[C@H]34)[C@@H]21 (stereo partly specified)	> 10 µM	> 80.6 µM	
O=C(NCCCCN1CCCC2=C[C@H]3C[C@H](CN4CCCC[C@H]34)[C@@H]21)c1ccccc1OC(F)(F)F	> 10 µM	> 40.7 µM	
C1=C2CCCN(CCCCCNCc3ccccc3)[C@H]2[C@@H]2C[C@H]1[C@H]1CCCCN1C2	0.84 µM	25.1 µM	
O=C(Cc1ccc(OC(F)(F)F)cc1)NCCCCN1CCCC2=C[C@H]3C[C@H](CN4CCCC[C@H]34)[C@@H]21	0.75 µM	23 µM	EC50 [13]: 4.3 µM; inhibition (COS [3]): Active; EC50 [14]: 0.9 µM; EC50 [15]: 2.8 µM; EC50 [16]: 2.1 µM; EC50 [17]: 1.4 µM; Activity [18]: Non-toxic; EC50 [19]: 2.2 µM; EC50 [20]: 1.6 µM; Activity [21]: inactive; EC50 [22]: 2.5 µM
O=C(NCCCCN1CCCC2=C[C@H]3C[C@H](CN4CCCC[C@H]34)[C@@H]21)c1cccc(OC(F)(F)F)c1	3.89 µM	> 40.7 µM	
O=C(NCCCCCN1CCCC2=C[C@H]3C[C@H](CN4CCCC[C@H]34)[C@@H]21)c1ccc(OC(F)(F)F)cc1	0.98 µM	12.9 µM	
FC(F)(F)Oc1ccc(CNCCCCN2CCCC3=C[C@H]4C[C@H](CN5CCCC[C@H]45)[C@@H]32)cc1	4.2 µM	6.2 µM	
O=C(NCCCN1CCCC2=C[C@H]3C[C@H](CN4CCCC[C@H]34)[C@@H]21)c1ccc(OC(F)(F)F)cc1	> 10 µM	> 41.9 µM	
O=C(/C=C/c1ccc2c(c1)OCO2)NCCCN1CCCC2=C[C@H]3C[C@H](CN4CCCC[C@H]34)[C@@H]21	7.98 µM	> 43.2 µM	
NCCCN1CCCC2=C[C@H]3C[C@H](CN4CCCC[C@H]34)[C@@H]21	> 10 µM	> 69.4 µM	
Cc1ccc(C(=O)NCCCCN2CCCC3=C[C@H]4C[C@H](CN5CCCC[C@H]45)[C@@H]32)cc1	4.98 µM	> 47.5 µM	
